Values of other authors in US20210128727A1, “A pharmaceutical combination for use in the treatment of cancer” (Universitätsmedizin der Johannes Gutenberg-Universität Mainz, priority 2018, published 2021).

Biological target: T1, TLR-9 (Mus musculus, UniProt Q9EQU3)
T1 construct: host or cells: mice (in vivo, endogenous protein)
T1 sequence (Q9EQU3 26-1032): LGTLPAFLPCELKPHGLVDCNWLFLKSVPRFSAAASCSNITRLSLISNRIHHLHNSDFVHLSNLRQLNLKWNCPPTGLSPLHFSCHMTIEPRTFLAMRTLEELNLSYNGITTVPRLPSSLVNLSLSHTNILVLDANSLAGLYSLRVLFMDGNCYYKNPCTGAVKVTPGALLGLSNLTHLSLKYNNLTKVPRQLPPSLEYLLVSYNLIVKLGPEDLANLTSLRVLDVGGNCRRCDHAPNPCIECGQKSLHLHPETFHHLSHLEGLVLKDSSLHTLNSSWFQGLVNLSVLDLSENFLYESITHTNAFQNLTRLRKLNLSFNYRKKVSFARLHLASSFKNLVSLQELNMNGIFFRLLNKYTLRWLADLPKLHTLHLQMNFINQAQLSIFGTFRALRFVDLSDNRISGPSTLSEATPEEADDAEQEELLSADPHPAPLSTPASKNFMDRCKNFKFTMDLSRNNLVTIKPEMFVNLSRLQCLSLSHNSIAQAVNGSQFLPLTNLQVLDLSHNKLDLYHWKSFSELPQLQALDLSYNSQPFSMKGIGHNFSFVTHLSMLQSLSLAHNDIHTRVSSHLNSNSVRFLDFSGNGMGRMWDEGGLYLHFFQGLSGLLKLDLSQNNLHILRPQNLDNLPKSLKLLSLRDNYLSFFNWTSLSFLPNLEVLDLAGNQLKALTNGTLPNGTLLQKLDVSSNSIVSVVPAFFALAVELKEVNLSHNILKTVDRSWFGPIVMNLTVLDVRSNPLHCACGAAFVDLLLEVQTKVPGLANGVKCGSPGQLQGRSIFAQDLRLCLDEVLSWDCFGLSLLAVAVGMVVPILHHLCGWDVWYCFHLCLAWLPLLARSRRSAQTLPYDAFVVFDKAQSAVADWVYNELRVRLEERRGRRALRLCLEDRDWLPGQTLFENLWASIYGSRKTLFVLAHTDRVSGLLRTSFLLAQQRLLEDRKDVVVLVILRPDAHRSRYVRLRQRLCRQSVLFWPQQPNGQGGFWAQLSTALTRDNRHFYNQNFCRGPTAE
Conditions: mice

## 5′-TCCATGACGTTCCTGATGCT-3′: CpG oligodeoxynucleotide TLR9 agonist produced at Metabion International AG (DNA, all phosphorothioate, methylation of C not given here; listed as Mus musculus)
  reversal of regulatory T cell-mediated CD8 tolerance: efficiently reverse regulatory T cell-mediated CD8 tolerance
